From patent publication US8877778B2, “Benzofurane compounds” (Hoffmann-La Roche Inc., priority 2010, dated 2014)

Assays:
human D3 receptor = human D3 receptor (Homo sapiens (Human), UniProt P35462); assay: Radioligand binding ([3H]-spiperone) to cloned receptors expressed in HEK-293 EBNA cells; conditions: HEK293 EBNA cell membranes expressing human D3
Method in brief: (§1)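 Membranes from transiently transfected HEK293 EBNA cells incubated 1 h at RT with ten compound concentrations (10 μM–0.1 nM). D2/D3: [3H]-spiperone ~0.7/0.5 nM, Tris–NaCl–Mg/Ca buffer pH 7.4; 5-HT2A: [3H]-ketanserin 1.1 nM, Tris–MgCl2–EGTA pH 7.4.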

human D2 receptor = human D2 receptor (Homo sapiens (Human), UniProt P14416); assay: as above; conditions: HEK293 EBNA cell membranes expressing human D2
Sequence of human D2 receptor (P14416 whole entry): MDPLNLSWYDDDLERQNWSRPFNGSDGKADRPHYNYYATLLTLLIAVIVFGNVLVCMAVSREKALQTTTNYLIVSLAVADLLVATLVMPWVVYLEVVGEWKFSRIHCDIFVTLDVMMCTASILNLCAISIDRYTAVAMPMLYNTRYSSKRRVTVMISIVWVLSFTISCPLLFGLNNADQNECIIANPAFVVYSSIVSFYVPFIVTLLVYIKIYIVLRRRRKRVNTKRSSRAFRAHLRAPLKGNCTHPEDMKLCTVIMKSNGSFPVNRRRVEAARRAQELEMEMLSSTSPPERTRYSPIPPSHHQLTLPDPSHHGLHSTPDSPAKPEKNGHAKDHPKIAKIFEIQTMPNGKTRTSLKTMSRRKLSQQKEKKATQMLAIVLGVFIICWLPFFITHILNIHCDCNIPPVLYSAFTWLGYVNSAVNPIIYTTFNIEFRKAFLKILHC
Method in brief: as §1

human 5-HT2A receptor = human 5-HT2A receptor (Homo sapiens (Human), UniProt P28223); assay: Radioligand binding ([3H]-ketanserin) to cloned receptors expressed in HEK-293 EBNA cells; conditions: HEK293 EBNA cell membranes expressing human 5-HT2A
Sequence of human 5-HT2A receptor (P28223 whole entry): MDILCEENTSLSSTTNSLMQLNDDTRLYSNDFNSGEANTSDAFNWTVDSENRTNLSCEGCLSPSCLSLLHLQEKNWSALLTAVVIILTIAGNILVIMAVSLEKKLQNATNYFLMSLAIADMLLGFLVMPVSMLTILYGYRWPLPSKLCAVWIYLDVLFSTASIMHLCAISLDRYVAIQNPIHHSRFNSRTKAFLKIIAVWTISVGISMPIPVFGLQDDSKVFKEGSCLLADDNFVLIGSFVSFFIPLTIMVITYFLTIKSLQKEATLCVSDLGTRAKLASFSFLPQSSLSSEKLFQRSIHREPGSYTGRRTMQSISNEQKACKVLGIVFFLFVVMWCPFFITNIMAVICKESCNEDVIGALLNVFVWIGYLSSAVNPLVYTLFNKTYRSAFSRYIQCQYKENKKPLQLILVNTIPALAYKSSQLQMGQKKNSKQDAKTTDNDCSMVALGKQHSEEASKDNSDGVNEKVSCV
Method in brief: as §1

Sequence of human D3 receptor (P35462 whole entry): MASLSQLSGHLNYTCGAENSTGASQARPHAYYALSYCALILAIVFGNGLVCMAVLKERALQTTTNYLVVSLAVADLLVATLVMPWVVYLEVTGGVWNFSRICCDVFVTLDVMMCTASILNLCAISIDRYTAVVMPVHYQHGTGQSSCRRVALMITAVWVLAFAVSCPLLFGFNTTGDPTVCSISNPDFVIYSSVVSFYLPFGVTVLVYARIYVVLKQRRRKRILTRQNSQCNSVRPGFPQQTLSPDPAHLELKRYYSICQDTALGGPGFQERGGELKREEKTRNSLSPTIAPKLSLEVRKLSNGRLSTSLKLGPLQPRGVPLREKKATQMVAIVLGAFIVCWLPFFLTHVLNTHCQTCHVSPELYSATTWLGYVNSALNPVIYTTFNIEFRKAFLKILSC

Compound	Ki (human D3 receptor)	Ki (human D2 receptor)	melting point	Ki (human 5-HT2A receptor)	D2 Ki (human D2 receptor)
CC(C)(C)CC(=O)N[C@H]1CC[C@H](CCN2CCC(c3cccc4c3CCO4)CC2)CC1 [Example 59, trans-N-(4-{2-[4-(2,3-Dihydro-benzofuran-4-yl)-piperidin-1-yl]ethyl}-cyclohexyl)-3,3-dimethyl-butyramide]	6 nM	394 nM	193 °C	54.1 nM	
O=C(CC1CCC1)N[C@H]1CC[C@H](CCN2CCC(c3cccc4c3CCO4)CC2)CC1 [Example 60, trans-2-Cyclobutyl-N-(4-{2-[4-(2,3-dihydro-benzofuran-4-yl)-piperidin-1-yl]-ethyl}-cyclohexyl)-acetamide]	6.1 nM	301 nM	196 °C	44.4 nM	
O=C(N[C@H]1CC[C@H](CCN2CCC(c3cccc4c3CCO4)CC2)CC1)C1CC1(F)F (stereo partly drawn) [Example 61, 2,2-Difluoro-cyclopropanecarboxylic acid trans-(4-{2-[4-(2,3-dihydro-benzofuran-4-yl)-piperidin-1-yl]-ethyl}-cyclohexyl)-amide]	9.6 nM	236 nM	199 °C	51.9 nM	
CN(C)C(=O)CCC(=O)N[C@H]1CC[C@H](CCN2CCC(c3cccc4c3CCO4)CC2)CC1 [Example 63, trans-N-(4-{2-[4-(2,3-Dihydro-benzofuran-4-yl)-piperidin-1-yl]ethyl}-cyclohexyl)-N′,N′-dimethyl-succinamide]	15.5 nM	1060 nM	205 °C	89.6 nM	
CC(=O)N[C@H]1CC[C@H](CCN2CCC(c3ccc(F)c4occc34)CC2)CC1 [Example 64, trans-N-(4-{2-[4-(7-Fluoro-benzofuran-4-yl)-piperidin-1-yl]-ethyl}-cyclohexyl)-acetamide]	9.72 nM	404 nM	203.5 °C	33.3 nM	
O=C(N[C@H]1CC[C@H](CCN2CCC(c3ccc(F)c4occc34)CC2)CC1)C1CCOCC1 [Example 65, Tetrahydro-pyran-4-carboxylic acid trans-(4-{2-[4-(7-fluoro-benzofuran-4-yl)-piperidin-1-yl]-ethyl}-cyclohexyl)-amide]	34 nM	361 nM	208 °C	11.6 nM	
O=C(CC1CCOCC1)N[C@H]1CC[C@H](CCN2CCC(c3ccc(F)c4occc34)CC2)CC1 [Example 66, trans-N-(4-{2-[4-(7-Fluoro-benzofuran-4-yl)-piperidin-1-yl]-ethyl}-cyclohexyl)-2-(tetrahydro-pyran-4-yl)-acetamide]	20.1 nM	616 nM	187.5 °C	30.9 nM	
COCCC(=O)N[C@H]1CC[C@H](CCN2CCC(c3ccc(F)c4occc34)CC2)CC1 [Example 67, trans-N-(4-{2-[4-(7-Fluoro-benzofuran-4-yl)-piperidin-1-yl]-ethyl}-cyclohexyl)-3-methoxy-propionamide]	9.28 nM	613 nM	177 °C	31 nM	
O=C(N[C@H]1CC[C@H](CCN2CCC(c3cccc4c3CCO4)CC2)CC1)c1ccc(-n2cccn2)cc1 [Example 68, trans-N-(4-{2-[4-(2,3-Dihydro-benzofuran-4-yl)-piperidin-1-yl]-ethyl}-cyclohexyl)-4-pyrazol-1-yl-benzamide]	8.65 nM	1700 nM	258.5 °C	27.4 nM	
Cc1nc(-c2ccc(C(=O)N[C@H]3CC[C@H](CCN4CCC(c5cccc6c5CCO6)CC4)CC3)cc2)no1 [Example 69, trans-N-(4-{2-[4-(2,3-Dihydro-benzofuran-4-yl)-piperidin-1-yl]-ethyl}-cyclohexyl)-4-(5-methyl-[1,2,4]oxadiazol-3-yl)-benzamide]	14.9 nM	3730 nM	256.5 °C	54.5 nM	
CS(=O)(=O)c1ccc(C(=O)N[C@H]2CC[C@H](CCN3CCC(c4cccc5c4CCO5)CC3)CC2)s1 [Example 70, 5-Methanesulfonyl-thiophene-2-carboxylic acid trans-(4-{2-[4-(2,3-dihydro-benzofuran-4-yl)-piperidin-1-yl]-ethyl}-cyclohexyl)-amide]	6.63 nM	195 nM	255 °C	31.4 nM	
CC(C)(C)c1ccc(C(=O)N[C@H]2CC[C@H](CCN3CCC(c4cccc5c4CCO5)CC3)CC2)cc1 [Example 71, trans-4-tert-Butyl-N-(4-{2-[4-(2,3-dihydro-benzofuran-4-yl)-piperidin-1-yl]-ethyl}-cyclohexyl)-benzamide]	13.6 nM		208 °C	28.6 nM	inactive
CC(C)(O)CC(=O)N[C@H]1CC[C@H](CCN2CCC(c3cccc4c3CCO4)CC2)CC1 [Example 72, trans-N-(4-{2-[4-(2,3-Dihydro-benzofuran-4-yl)-piperidin-1-yl]-ethyl}-cyclohexyl)-3-hydroxy-3-methyl-butyramide]	6.33 nM	176 nM	168 °C	56.1 nM	
CCCC(=O)N[C@H]1CC[C@H](CCN2CCC(c3cccc4c3CCO4)CC2)CC1 [Example 73, trans-N-(4-{2-[4-(2,3-Dihydro-benzofuran-4-yl)-piperidin-1-yl]-ethyl}-cyclohexyl)-butyramide]	5.16 nM	197 nM	196 °C	93.4 nM	
O=C(CCC(F)(F)F)N[C@H]1CC[C@H](CCN2CCC(c3cccc4c3CCO4)CC2)CC1 [Example 74, trans-N-(4-{2-[4-(2,3-Dihydro-benzofuran-4-yl)-piperidin-1-yl]ethyl}-cyclohexyl)-4,4,4-trifluoro-butyramide]	7.64 nM	253 nM	200 °C	119 nM	
CC(C)CCC(=O)N[C@H]1CC[C@H](CCN2CCC(c3cccc4c3CCO4)CC2)CC1 [Example 75, 4-Methyl-pentanoic acid trans-(4-{2-[4-(2,3-dihydro-benzofuran-4-yl)-piperidin-1-yl]-ethyl}-cyclohexyl)-amide]	9.97 nM	1070 nM	188 °C	72.9 nM	
CCCCC(=O)N[C@H]1CC[C@H](CCN2CCC(c3cccc4c3CCO4)CC2)CC1 [Example 76, Pentanoic acid trans-(4-{2-[4-(2,3-dihydro-benzofuran-4-yl)-piperidin-1-yl]-ethyl}-cyclohexyl)-amide]	4.57 nM	411 nM	186 °C	103 nM	
O=C(N[C@H]1CC[C@H](CCN2CCC(c3cccc4c3CCO4)CC2)CC1)c1ccc(N2CCS(=O)(=O)CC2)cc1 [Example 77, trans-N-(4-{2-[4-(2,3-Dihydro-benzofuran-4-yl)-piperidin-1-yl]-ethyl}-cyclohexyl)-4-(1,1-dioxo-1λ6-thiomorpholin-4-yl)-benzamide]	5.62 nM	329 nM	282 °C	33 nM	
O=C(N[C@H]1CC[C@H](CCN2CCC(c3cccc4c3CCO4)CC2)CC1)c1ccc2ncccc2c1 [Example 78, Quinoline-6-carboxylic acid trans-(4-{2-[4-(2,3-dihydro-benzofuran-4-yl)-piperidin-1-yl]-ethyl}-cyclohexyl)-amide]	4.35 nM	3250 nM	238 °C	30.7 nM	
O=C(N[C@H]1CC[C@H](CCN2CCC(c3cccc4c3CCO4)CC2)CC1)c1ccc2c(c1)OCO2 [Example 79, Benzo[1,3]dioxole-5-carboxylic acid trans-(4-{2-[4-(2,3-dihydro-benzofuran-4-yl)-piperidin-1-yl]-ethyl}-cyclohexyl)-amide]	3.5 nM	809 nM	233 °C	23 nM	
O=C(CC1COC1)N[C@H]1CC[C@H](CCN2CCC(c3cccc4c3CCO4)CC2)CC1 [Example 80, trans-N-(4-{2-[4-(2,3-Dihydro-benzofuran-4-yl)-piperidin-1-yl]-ethyl}-cyclohexyl)-2-oxetan-3-yl-acetamide]	4.27 nM	196 nM	197 °C	55.5 nM	
CC[C@@H](O)CC(=O)N[C@H]1CC[C@H](CCN2CCC(c3cccc4c3CCO4)CC2)CC1 [Example 81, (R)-3-Hydroxy-pentanoic acid trans-(4-{2-[4-(2,3-dihydro-benzofuran-4-yl)-piperidin-1-yl]-ethyl}-cyclohexyl)-amide]	10 nM	356 nM	201 °C	123 nM	
COC(CC(=O)N[C@H]1CC[C@H](CCN2CCC(c3cccc4c3CCO4)CC2)CC1)OC [Example 82, trans-N-(4-{2-[4-(2,3-Dihydro-benzofuran-4-yl)-piperidin-1-yl]ethyl}-cyclohexyl)-3,3-dimethoxy-propionamide]	4.78 nM	366 nM	240 °C	69.9 nM	
CN(C)C(=O)N[C@H]1CC[C@H](CCN2CCC(c3cccc4c3CCO4)CC2)CC1 [Example 83, trans-3-(4-{2-[4-(2,3-Dihydro-benzofuran-4-yl)-piperidin-1-yl]-ethyl}-cyclohexyl)-1,1-dimethyl-urea]	44.2 nM	69.9 nM	260 °C	121 nM	
CC(C)=CC(=O)N[C@H]1CC[C@H](CCN2CCC(c3cccc4c3CCO4)CC2)CC1 [Example 84, 3-Methyl-but-2-enoic acid trans-(4-{2-[4-(2,3-dihydro-benzofuran-4-yl)-piperidin-1-yl]-ethyl}-cyclohexyl)-amide]	6.36 nM	73.9 nM	177 °C	59.8 nM	
